From US8129398B2 (priority 2008, dated 2012)
Like-named read-outs stand apart in the source and are kept apart here.

How the values were obtained:
HIV-integrase = target: T1, HIV-integrase (Human immunodeficiency virus type 1 group M subtype B, UniProt P12497); assay: HIV-Integrase Inhibition Activity (SPA bead integration assay with P33 labeled target DNA); assay type: biochemical; conditions: for IC50: recombinant integrase, class symbols, read-out: in vitro activity; for Ki: representative compounds
T1 construct: Recombinant integrase (0.26 ng) was incubated with the beads
How it was run: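 Strand integration read as bead-proximity CPM after P33 target DNA (0.1 fmol) and inhibitor were added to washed integrase–substrate DNA complexes on SPA beads. Enzyme bound 90 min at 37° C; EDTA (10 mM final) terminated reaction; IC50 graded A/B/C.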

[1] = tested on: recombinant NL-Rluc virus; assay: Inhibition of HIV replication (recombinant NL-Rluc virus, Renilla luciferase reporter); assay type: cell-based
[2] = read-out: Antiviral activity, NL-Rluc virus, serum condition not specified (10% FBS, 15 mg/ml human serum albumin/10% FBS or 40% human serum/5% FBS), class symbols

**Q.** How did the IC50 (HIV-integrase) turn out when `CN(C)C(=O)C(=O)NC12CCC(Cn3c1nc(C(=O)NCc1ccc(F)cc1)c(O)c3=O)C2` (single isomer, unassigned) [Example 412, Ethanediamide, N′-[2-[[[(4-fluorophenyl)methyl]amino]carbonyl]-6,7,8,9-tetrahydro-3-hydroxy-4-oxo-7,11-methanopyrimido[1,2-a]azepin-10(4H)-yl]-N,N-dimethyl-] was run?
**A.** The IC50 was under 0.01 µM.

**Q.** And the EC50 [1, 2]?
**A.** The EC50 was under 0.01 µM.

**Q.** Which IC50 (HIV-integrase) does the source give for `Cc1cc(CNC(=O)c2nc3n(c(=O)c2O)CC2CCC3(NC(=O)C3(C(F)(F)F)CC3)CC2)ccc1F` [Example 303, 7,10-Ethanopyrimido[1,2-a]azepine-2-carboxamide, N-[(4-fluoro-3-methylphenyl)methyl]-4,6,7,8,9,10-hexahydro-3-hydroxy-4-oxo-10-[[[1-(trifluoromethyl)cyclopropyl]carbonyl]amino]-] here?
**A.** The IC50 was over 0.1 µM.

**Q.** What about the Ki (HIV-integrase) of the same molecule?
**A.** Its Ki is 0.18 µM.

**Q.** And the EC50 ([1]; Human immunodeficiency virus 1)?
**A.** Its EC50 is 0.192 µM.

**Q.** For `CC(=O)N1CCC[C@H]1C(=O)NC12CCC(CC1)Cn1c2nc(C(=O)NCc2ccc(F)cc2)c(O)c1=O` [Example 255, 7,10-Ethanopyrimido[1,2-a]azepine-2-carboxamide, 10-[[[(2S)-1-acetyl-2-pyrrolidinyl]carbonyl]amino]-N-[(4-fluorophenyl)methyl]-4,6,7,8,9,10-hexahydro-3-hydroxy-4-oxo-], which IC50 (HIV-integrase) is on record?
**A.** The IC50 was under 0.01 µM.

**Q.** What about the EC50 [1, 2] of the same molecule?
**A.** Its EC50 is under 0.01 µM.

**Q.** `NC12CCC(CC1)Cn1c2nc(C(=O)NCc2ccc(F)cc2)c(O)c1=O` [Example 19, 10-Amino-N-(4-fluorobenzyl)-3-hydroxy-4-oxo-4,6,7,8,9,10-hexahydro-7,10-ethanopyrimido[1,2-a]azepine-2-carboxamide] was tested. Which IC50 (HIV-integrase) did it give?
**A.** Its IC50 is over 0.1 µM.

**Q.** And the Ki (HIV-integrase)?
**A.** Its Ki is 0.126 µM.

**Q.** And the EC50 ([1]; Human immunodeficiency virus 1)?
**A.** Its EC50 is 0.302 µM.

**Q.** `O=C(NCc1ccc(F)cc1)c1nc2n(c(=O)c1O)CC1CCC2(NS(=O)(=O)C2CC2)CC1` [Example 41, 10-((Cyclopropylsulfonyl)amino)-N-(4-fluorobenzyl)-3-hydroxy-4-oxo-4,6,7,8,9,10-hexahydro-7,10-ethanopyrimido[1,2-a]azepine-2-carboxamide] was tested. Which IC50 (HIV-integrase) did it give?
**A.** The IC50 was under 0.01 µM.

**Q.** And the Ki (HIV-integrase)?
**A.** The Ki was 0.001 µM.

**Q.** What about the EC50 ([1]; Human immunodeficiency virus 1) of the same molecule?
**A.** Its EC50 is under 0.001 µM.

**Q.** With `COc1ccc(CNC(=O)c2nc3n(c(=O)c2O)CC2CCC3(NC(=O)C(=O)N(C)C)CC2)c(OC)c1` [Example 382] as the molecule, how does the IC50 (HIV-integrase) read?
**A.** Its IC50 is 0.01 to 0.1 µM.

**Q.** And the Ki (HIV-integrase)?
**A.** The Ki was 0.011 µM.

**Q.** What about the EC50 ([1]; Human immunodeficiency virus 1) of the same molecule?
**A.** The EC50 was 0.016 µM.

**Q.** Which IC50 (HIV-integrase) does the source give for `CS(=O)(=O)N1CCC[C@H]1C(=O)NC12CCC(CC1)Cn1c2nc(C(=O)NCc2ccc(F)cc2)c(O)c1=O` [Example 256, 7,10-Ethanopyrimido[1,2-a]azepine-2-carboxamide, N-[(4-fluorophenyl)methyl]-4,6,7,8,9,10-hexahydro-3-hydroxy-10-[[[(2S)-1-(methylsulfonyl)-2-pyrrolidinyl]carbonyl]amino]-4-oxo-] here?
**A.** Its IC50 is under 0.01 µM.

**Q.** What about the EC50 [1, 2] of the same molecule?
**A.** Its EC50 is under 0.01 µM.

**Q.** How did the IC50 (HIV-integrase) turn out when `Cc1cc(CNC(=O)c2nc3n(c(=O)c2O)CC2CCC3(NC(=O)c3cccnn3)CC2)ccc1F` [Example 314, 7,10-Ethanopyrimido[1,2-a]azepine-2-carboxamide, N-[(4-fluoro-3-methylphenyl)methyl]-4,6,7,8,9,10-hexahydro-3-hydroxy-4-oxo-10-[(3-pyridazinylcarbonyl)amino]-] was run?
**A.** The IC50 was under 0.01 µM.

**Q.** What about the Ki (HIV-integrase) of the same molecule?
**A.** The Ki was under 0.001 µM.

**Q.** And the EC50 ([1]; Human immunodeficiency virus 1)?
**A.** The EC50 was under 0.001 µM.

**Q.** `O=C(NCc1ccc(F)cc1)c1nc2n(c(=O)c1O)CC1CC2CN(C(=O)OCc2ccccc2)C1` (stereo not drawn) [Example 6, 7,11-Methano-4H-pyrimido[1,2-a][1,5]diazocine-9(6H)-carboxylic acid, 2-[[[(4-fluorophenyl)methyl]amino]carbonyl]-7,8,10,11-tetrahydro-3-hydroxy-4-oxo-, phenylmethyl ester] was tested. Which IC50 (HIV-integrase) did it give?
**A.** The IC50 was 0.01 to 0.1 µM.

**Q.** What about the Ki (HIV-integrase) of the same molecule?
**A.** Its Ki is 0.012 µM.

**Q.** What about the EC50 ([1]; Human immunodeficiency virus 1) of the same molecule?
**A.** Its EC50 is 0.141 µM.

**Q.** `O=C(NCc1ccc(F)cc1)c1nc2n(c(=O)c1O)CC1CCC2(NS(=O)(=O)c2ccccc2OC(F)(F)F)CC1` [Example 396] was tested. Which IC50 (HIV-integrase) did it give?
**A.** Its IC50 is over 0.1 µM.

**Q.** And the Ki (HIV-integrase)?
**A.** The Ki was 0.294 µM.

**Q.** What about the EC50 ([1]; Human immunodeficiency virus 1) of the same molecule?
**A.** The EC50 was 0.455 µM.
